Usually inhibition stands for how much of the control response was suppressed.

Read-outs that look alike come from different tables or passages of the source.

Test [1] has as its system NCM356 cells. Briefly: NCM356 non-malignant colonic epithelial cell proliferation (xCELLigence). In kind it is cell-based, human. The following applies: AOAA 1 mM. As to the method: Cellular proliferation assays are conducted in HCT116 CRC cells in vitro, using the Roche XCelligence method. Concentration-response curves with the various AOAA analogs are prepared (concentration range: 1, 3, 10, 100, 300 and 600 μM). AOAA is used as the reference control, which, according to preliminary data, has an IC50 of approximately 300 μM. Control proliferation studies in the non-carcinogenic colonic epithelial cell line NCM356 are used to confirm cancer-cell selectivity. Since the NCM356 cells contain low levels of CBS, based on previous studies it is expect that AOAA (and its prodrugs) will only exert modest antiproliferative effects in these cells. Proliferation-inhibitory effects of the AOAA prodrugs in NCM356 cells indicate CBS-independent pharmacological actions. […]
Cellular migration and invasion assays were performed as described (Chao et al. (1996) Cancer Res. 56:4811-19). […] Migrated and invaded cells were then fixed in Carson's fixative, stained in 0.33% toluidine blue and quantified by visual counting. For the HCT116-EAhy926 co-culture experiment, the cancer cell line was grown to confluence in the bottom wells of the transwell chambers and then endothelial cell migration was assessed (Coletta et al. (2012) Proc Natl Acad Sci USA. 109:9161-66). […]

In test [2] the target is T1, CBS (Homo sapiens, UniProt P35520).
T1 sequence (P35520 1-551): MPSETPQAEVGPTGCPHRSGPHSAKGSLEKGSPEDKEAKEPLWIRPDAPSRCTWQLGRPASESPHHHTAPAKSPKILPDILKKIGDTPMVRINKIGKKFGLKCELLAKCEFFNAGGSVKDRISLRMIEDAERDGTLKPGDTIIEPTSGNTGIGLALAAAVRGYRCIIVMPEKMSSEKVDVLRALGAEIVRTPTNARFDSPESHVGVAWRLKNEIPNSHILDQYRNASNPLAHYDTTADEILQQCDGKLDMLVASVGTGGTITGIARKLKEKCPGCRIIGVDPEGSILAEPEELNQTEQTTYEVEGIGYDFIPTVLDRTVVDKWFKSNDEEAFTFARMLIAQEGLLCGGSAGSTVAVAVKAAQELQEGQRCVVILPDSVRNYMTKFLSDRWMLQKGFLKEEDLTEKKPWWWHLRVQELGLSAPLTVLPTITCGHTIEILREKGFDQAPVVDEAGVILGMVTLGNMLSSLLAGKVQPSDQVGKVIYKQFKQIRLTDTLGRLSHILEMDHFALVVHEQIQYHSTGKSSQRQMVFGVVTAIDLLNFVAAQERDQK
The test is described as follows: H2S production in colon cancer tissue extracts (methylene blue method). In kind it is biochemical. More on the design: from tissue; host or cells: human colorectal tumor tissue and patient-matched normal mucosa homogenates. The following applies: AOAA 1 mM; L-cysteine 3 mM, L-homocysteine 0.5 mM, 37° C., 30 min. The text has this:
FIG. 1. CBS is overexpressed in human colorectal cancer. (A) Representative Western blot of CBS, CSE and 3-MST protein expression in human colorectal cancer specimens, paired with the corresponding normal mucosa tissues. PVDF membranes were probed with rabbit polyclonal antibodies against CBS, CSE and 3-MST. […] (C, D) CBS was highly expressed in three different colon cancer cell lines (LoVo, HCT116 and HT29); low expression was detected in the non-tumorigenic normal colon mucosa cells (NCM356) (arbitrary relative densitometric units were normalized with β-actin using image analysis software) (*p<0.05 vs NCM356 cells) (E) or in colon cancer cell lines (F) by the methylene blue method. H2S production was stimulated in tissue or cell lysates by incubation at 37° C. (30 min) in presence of the CBS substrates L-cysteine (3 mM) and L-homocysteine (0.5 mM). […] Western blots show representatives of at least n=3 experiments; H2S measurements represent mean±SEM of at least n=3 determinations.
H2S production can be measured in a tissue homogenate by using a methylene blue assay. Briefly, 1% zinc acetate is added to a tissue homogenate to trap H2S followed by 10% trichloroacetic acid to precipitate proteins. […] The absorbance of the resulting solution is measured at 655 nm. H2S content is calculated against a calibration curve of standard H2S solutions. […]

Test [3] concerns HCT116 colon cancer cell. Briefly: HCT116 colon cancer cell proliferation (xCELLigence). In kind it is cell-based, human. The following applies: Homo sapiens, HCT-116. As to the method:
Cellular proliferation assays are conducted in HCT116 CRC cells in vitro, using the Roche XCelligence method. Concentration-response curves with the various AOAA analogs are prepared (concentration range: 1, 3, 10, 100, 300 and 600 μM). AOAA is used as the reference control, which, according to preliminary data, has an IC50 of approximately 300 μM. Control proliferation studies in the non-carcinogenic colonic epithelial cell line NCM356 are used to confirm cancer-cell selectivity. Since the NCM356 cells contain low levels of CBS, based on previous studies it is expect that AOAA (and its prodrugs) will only exert modest antiproliferative effects in these cells. Proliferation-inhibitory effects of the AOAA prodrugs in NCM356 cells indicate CBS-independent pharmacological actions. A collection of human colorectal tumor tissue samples (and surrounding non-cancerous tissue) are used to test the conversion of the AOAA prodrugs to AOAA in a number of cancer samples.
Cellular migration and invasion assays were performed as described (Chao et al. (1996) Cancer Res. 56:4811-19). Briefly, 10^5 cells were suspended in serum-free media containing 0.1% BSA and then added to 6.5 mm Transwell chambers ([…]) uncoated (migration assay) or coated with a thin layer (45 μl) of growth factor reduced matrigel (cell invasion assay). Cells were allowed to migrate toward the bottom chamber containing fibroblast (NIH-3T3 cells) conditioned media at 37° C. for 6 or 24 h for cell migration and invasion, respectively. Migrated and invaded cells were then fixed in Carson's fixative, stained in 0.33% toluidine blue and quantified by visual counting. For the HCT116-EAhy926 co-culture experiment, the cancer cell line was grown to confluence in the bottom wells of the transwell chambers and then endothelial cell migration was assessed (Coletta et al. (2012) Proc Natl Acad Sci USA. 109:9161-66). For assessment of colon cell proliferation, the xCELLigence system (Roche) was used (Szabo and Papapetropoulos (2011) Br J Pharmacol. 164:853-65).
For assessment of cell proliferation, the xCELLigence system (Roche) was used. Briefly, HCT116 cells were cultured until approximately 70% confluence. Cells were then detached by Trypsin-EDTA and resuspended in fresh culture media at a concentration of 30,000 cells/ml. 200 μl of cell suspension was added to each well (6,000 cells/well) of a E-plate 96, a specially designed 96-well microtiter plate containing interdigitated microelectrodes to non-invasively monitor the cell proliferation by measuring the relative change in the electrical impedance of the cell monolayer, a unitless parameter named cell index (CI). Cells were then treated with YD02-51 and proliferation was monitored for 48 hours.

For test [4], the system named is HCT116 colon cancer cell. The following applies: cell-based assays (Szabo et al. 2013); cited from earlier work.

As to `NOCC(=O)O` [AOAA, aminooxyacetic acid], the NCM356 growth entry in test [1] is “did not affect”. Further, the “H2S-producing activity of CBS in tissue extracts” value in test [2] is “blocked the H2S-producing activity”. For the same compound, at 300 µM the inhibition in test [3] (300 μM, HCT116) was 21%. For the same compound, the IC50 in test [3] (read-out: IC50 (μM), inhibition of HCT116 colon cancer cell proliferation) is 1780 µM; in test [3] (reference control, preliminary data, XCelligence, read-out: IC50, HCT116 proliferation (preliminary data)), around 300 µM. For the same compound, in test [4], the “concentrations at which antiproliferative effects and effects on cellular energetics manifest in cell-based assays” value was “higher (millimolar) concentrations”.

The values are drawn from patent publication US10335382B2, “Use of hydrogen sulfide synthesis inhibitors for cancer therapy” (THE BOARD OF REGENTS OF THE UNIVERSITY OF TEXAS SYSTEM, priority 2013, dated 2019).
